Assay results reported in publication PMC6207662, “Postprandial glycaemia-lowering effect of a green tea cultivar Sunrouge and cultivar-specific metabolic profiling for determining bioactivity-related ingredients” (Scientific Reports, 2018).

Experiments:
[1] = target: T1, α-Glucosidase from Saccharomyces cerevisiae (Saccharomyces cerevisiae, UniProt P53341); assay: Assay of α-glucosidase activity (cell-free, QuantiChrom kit); assay type: biochemical; settings: for order of α-glucosidase inhibitory rate: 10 μM, n=3, Supplementary Fig. S4; for enhancement of α-glucosidase inhibitory ability by O-methylation (IC50 ratio non-methylated/methylated): IC50 of parent catechin / IC50 of its 3”-O-methylated form; for IC50: cell-free system
T1 construct: purchased Sigma-Aldrich
Experimental: α-Glucosidase from Saccharomyces cerevisiae (Sigma-Aldrich) was dissolved in phosphate buffered saline (PBS) at a concentration of 0.01 mg/mL. Tea extracts were diluted 1:10 with distilled water. Tea extracts or various concentrations of flavonoids in DMSO were mixed 1:1 with the α-glucosidase solution. The α-glucosidase activity of the mixture was measured by the QuantiChrom™ α-Glucosidase Assay Kit (Bio Assay Systems, Hayward, CA, USA) according to the manufacturer’s instructions.

[2] = system: postprandial blood glucose level; assay: Starch tolerance test in mice (postprandial blood glucose); assay type: in vivo, mice (male ICR); settings: compound 500 mg/kg b.w. with soluble starch 2,000 mg/kg b.w., Supplementary Fig. S5
Experimental: Nine-week-old male ICR mice were purchased from Kyudo Company (Saga, Japan). All mice were housed and maintained in a temperature and humidity controlled room with a 12-h light-dark cycle (light from 8 am to 8 pm). All animal studies were performed in accordance with the law (protocol no. 105) and notification (protocol no. 6) of the Japanese government for the welfare of experimental animals. The study protocol was approved by the Animal Care and Use Committee, Kyushu University (Kyushu University, Scientific Research Promotion Division). Mice were randomly divided into 3 groups (n = 8) with equivalent mean body weight and starved overnight. Mice were orally administered with soluble starch (2,000 mg/kg b.w.) (Wako, Osaka, Japan) alone, or in combination with a test sample. All solutions were made in distilled water. Blood was sampled from the tail vein at before (t = 0), 30, 60, 90, 120 and 150 min after administration. The blood glucose level was measured with the Medisafe Mini GR-102 (Terumo Co., Tokyo, Japan) and the areas under the curves (AUC) were calculated.

T1 sequence (P53341 whole entry): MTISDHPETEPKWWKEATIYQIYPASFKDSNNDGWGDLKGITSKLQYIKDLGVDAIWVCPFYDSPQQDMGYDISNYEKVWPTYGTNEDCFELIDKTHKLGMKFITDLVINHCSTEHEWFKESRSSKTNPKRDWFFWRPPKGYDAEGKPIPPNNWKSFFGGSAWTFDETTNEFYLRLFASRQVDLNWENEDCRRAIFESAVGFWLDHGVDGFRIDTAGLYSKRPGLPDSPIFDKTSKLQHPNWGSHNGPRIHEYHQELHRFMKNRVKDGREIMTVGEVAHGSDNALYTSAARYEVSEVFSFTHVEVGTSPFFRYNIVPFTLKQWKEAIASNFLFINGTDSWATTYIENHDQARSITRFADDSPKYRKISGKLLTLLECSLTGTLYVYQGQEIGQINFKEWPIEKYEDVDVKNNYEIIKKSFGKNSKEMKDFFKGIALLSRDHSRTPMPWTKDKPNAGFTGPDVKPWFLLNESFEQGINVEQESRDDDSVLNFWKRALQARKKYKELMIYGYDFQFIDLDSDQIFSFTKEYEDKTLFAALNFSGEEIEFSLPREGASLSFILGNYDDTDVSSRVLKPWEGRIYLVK

Row | Compound | order of α-glucosidase inhibitory rate [1] | enhancement of α-glucosidase inhibitory ability by O-methylation (IC50 ratio non-methylated/methylated) [1] [fold] | IC50 [1] [µM] | elevation of postprandial blood glucose level in oral starch tolerance test [2] | effect on the activity of α-glucosidase ([1]; Supplementary Fig. S2)
1 | epicatechin-3-O-gallate [ECG] | EGCG3”Me > EGCG > ECG3”Me > ECG | 4.2 | 61.1 | – | –
2 | epigallocatechin-3-O-(3-O-methyl) gallate [EGCG3”Me] | EGCG3”Me > EGCG > ECG3”Me > ECG | – | 8.1 | – | –
3 | O=c1c(O)c(-c2cc(O)c(O)c(O)c2)oc2cc(O)cc(O)c12 [Myr, myricetin] | – | – | 4.4 | suppressed the elevation of postprandial blood glucose level | –
4 | OC[C@H]1O[C@@H](Oc2cc3c(O)cc(O)cc3[o+]c2-c2cc(O)c(O)c(O)c2)[C@H](O)[C@@H](O)[C@@H]1O [Del-glu, delphinidin-3-O-glucoside] | – | – | > 100 | – | –
5 | O=c1c(OC2O[C@H](CO)[C@@H](O)[C@H](O)[C@H]2O)c(-c2cc(O)c(O)c(O)c2)oc2cc(O)cc(O)c12 (some centres unmarked) [Myr-glu, myricetin-3-O-glucoside] | – | – | > 100 | – | –
6 | CCNC(=O)CC[C@H](N)C(=O)O [theanine, L-theanine] | – | – | – | – | elevated the activity of α-glucosidase
7 | epigallocatechin-3-O-gallate [EGCG] | EGCG3”Me > EGCG > ECG3”Me > ECG | 1.6 | 13.3 | suppressed the elevation of postprandial blood glucose level | –
8 | Oc1cc(O)c2cc(O)c(-c3cc(O)c(O)c(O)c3)[o+]c2c1 [Del, delphinidin] | – | – | 31.6 | – | –
9 | COc1cc(C(=O)O[C@@H]2Cc3c(O)cc(O)cc3O[C@@H]2c2ccc(O)c(O)c2)cc(O)c1O [ECG3”Me, epicatechin-3-O-(3-O-methyl) gallate] | EGCG3”Me > EGCG > ECG3”Me > ECG | – | 14.7 | – | –
